Results taken from patent publication US6632793B1, “Immunological activity for a peptide of the limulus anti-LPS factor” (Centro de Ingenieria Genetica y Biotecnologia, priority 1997, dated 2003).

What was measured:
Assay type in all cases: cell-based
[1] = system: human mononuclear cells; test: Antiviral effect on Hep-2 cells of supernatant from human mononuclear cells stimulated with peptide; settings: for Antiviral effect of supernatant, 1: supernatant on Hep-2, experiment 1; for Antiviral effect of supernatant, 2: supernatant on Hep-2, experiment 2; for Antiviral effect of supernatant, 3: supernatant on Hep-2, experiment 3; for Antiviral effect of supernatant, Mean: supernatant on Hep-2, mean of 3
Description: (§1) Then the cells were washed with saline solution and infected with […] of Mengo virus, provide by Institute of Molecular Biology, University of Zurich, which is multiplied in the cell line L929 murine fibroblasts. 18 h later degree of cell destruction was measured by fixation and staining, generally with crystal violet, for reading of cytophatic effect was used a photometer Ultramicroanalytical System (SUMA). A computer program in Pascal UCSD language for the microcomputer system was developed for all calculations and corrections (Ferrero et al., 1994, Biotecnologia Aplicada. Vol. 1:). In this case serial dilution's of human γ-IFN 70 000 IU/ml (MRI, Freeze-dried Reference Human Recombinant Gamma Interferon) was used as standard in order to define unit of antiviral activity. For this reason the antiviral protection shown by the peptide is related to International Units of γ-IFN (Ul/ml). As a negative control were used different peptides from proteins that bind endotoxin. LPS at 10 ng/ml was used as a positively control because is well known that it induced the production of IFNs (Manthey et al., 1994, J. Immunology. Vol. 153: 2653-2663). One unit of antiviral activity is define as the quantity of IFN able to produce an 50% inhibition of the viral replication.
Venous blood was obtained from healthy volunteers and Ficoll-Hypaque centrifugation, fractionated mononuclear cells. The mononuclear cells were washed and resuspended in endotoxin-free RPMI-1640 culture medium supplemented with 10% fetal calf serum. Concentration of 2×10^6 cells/ml were aliquoted into 24-well microtiter plates (Nunc, Denmark). The cells were then incubated with 14 and 28 μg/ml of different peptides: Limulus anti-LPS factor31-52 (LALF), Lipopolysaccharide Binding Protein86-99 (LBP) and 18 kDa Cationic Antimicrobial Protein108-128 (CAP-18), at 37° C. for 18 hours in 5% CO2. The cells were centrifuged at 3000 rpm for 5 min and then serial dilutions of supematants were assays for antiviral activity using the procedures described in the example 2.

[2] = system: Mengo virus on cell line Hep-2; test: Antiviral effect: inhibition of the cytopathic effect of Mengo virus on cell line Hep-2; settings: 24 h pre-incubation; for Antiviral effect, 1: experiment 1; for Antiviral effect, 2: experiment 2; for Antiviral effect, 3: experiment 3; for Antiviral effect, Mean: mean of 3
Description: as §1

[3] = system: TNFα from human mononuclear cells; test: TNF-α synthesis by human mononuclear cells (ELISA of supernatant); settings: 18 h, mean of three donors
Description: Venous blood was obtained from healthy volunteers and Ficoll-Hypaque centrifugation, fractionated mononuclear cells. The mononuclear cells were washed and resuspended in endotoxic-free RPMI 1640 medium supplemented with 10% fetal calf serum. 30×10^6 cells were aliquoted into plates p-60 (Nunc, Denmark). The cells were incubated with 14 or 28 μg/ml LALF at 37° C. for 18 hours in 5% CO2 and then centrifuged at 3000 rpm during 5 min. The synthesis of TNFα in the supernatant was determined by specific enzyme-linked immunoadsorbent assay (ELISA), kindly provided by Dr. W. Buurman (University Hospital Maastrich, The Netherlands).

[4] = mononuclear cells stimulated with 14 μg/ml for 18 h
[5] = mononuclear cells stimulated with 28 μg/ml for 18 h

CAP-18 [reference compound]
Antiviral effect of supernatant, 1 [1, 4]: 7.8 IU/ml γ-IFN
Antiviral effect of supernatant, 2 [1, 4]: 8 IU/ml γ-IFN
Antiviral effect of supernatant, 3 [1, 4]: 11 IU/ml γ-IFN
Antiviral effect of supernatant, Mean [1, 4]: 8.93 IU/ml γ-IFN
Antiviral effect of supernatant, 1 [1, 5]: 8.2 IU/ml γ-IFN
Antiviral effect of supernatant, 2 [1, 5]: 9 IU/ml γ-IFN
Antiviral effect of supernatant, 3 [1, 5]: 9.6 IU/ml γ-IFN
Antiviral effect of supernatant, Mean [1, 5]: 8.93 IU/ml γ-IFN
Antiviral effect, 1 ([2]; Hep-2, 14 μg/ml): 9 IU/ml γ-IFN
Antiviral effect, 2 ([2]; Hep-2, 14 μg/ml): 8.7 IU/ml γ-IFN
Antiviral effect, 3 ([2]; Hep-2, 14 μg/ml): 9.2 IU/ml γ-IFN
Antiviral effect, Mean ([2]; Hep-2, 14 μg/ml): 8.9 IU/ml γ-IFN
Antiviral effect, 1 ([2]; Hep-2, 28 μg/ml): 12.2 IU/ml γ-IFN
Antiviral effect, 2 ([2]; Hep-2, 28 μg/ml): 9 IU/ml γ-IFN
Antiviral effect, 3 ([2]; Hep-2, 28 μg/ml): 9 IU/ml γ-IFN
Antiviral effect, Mean ([2]; Hep-2, 28 μg/ml): 10.9 IU/ml γ-IFN
TNF - α ([3]; 14 μg/ml): 0.76 ng/mL
TNF - α ([3]; 28 μg/ml): 0.75 ng/mL
